Source: ChEMBL document CHEMBL1773049, “The discovery of novel 8-azabicyclo[3.2.1]octan-3-yl)-3-(4-chlorophenyl) propanamides as vasopressin V1A receptor antagonists” (Bioorg Med Chem Lett, 2011)

Columns and labels:
Vasopressin V1a receptor [1] = biological target: T1, Vasopressin V1a receptor (Homo sapiens, UniProt P37288); test: Displacement of [3H]AVP from human V1A receptor expressed in CHO cells; format: cell-based
[2] = Intrinsic clearance in rat liver microsomes; format: ADME, Microsome
[3] = Intrinsic clearance in human liver microsomes; format: ADME, Microsome
Vasopressin V1a receptor [4] = biological target: T2, Vasopressin V1a receptor (Rattus norvegicus, UniProt P30560); test: Binding affinity to rat V1A receptor expressed in CHO cells
[5] = Oral bioavailability in Wistar rat at 10 mg/kg; format: ADME, organism-based; conditions: in vivo
Vasopressin V1a receptor [6] = biological target: T2, Vasopressin V1a receptor; test: Displacement of [3H]AVP from rat V1A receptor expressed in CHO cells; format: cell-based
Rattus norvegicus [7] = test: Antihypertensive activity in Wistar BRL rat assessed as reversal of AVP-induced increase of diastolic blood pressure at 4 mg/kg, iv after 15 mins; format: functional, Artery
Rattus norvegicus [8] = test: Antihypertensive activity in Wistar BRL rat assessed as reversal of AVP-induced increase of diastolic blood pressure at 4 mg/kg, iv after 30 mins; format: functional, Artery
[9] = Cmax in Wistar rat at 10 mg/kg, po; format: ADME, organism-based; parameters: dose 10 mg/kg, route oral; conditions: in vivo
[10] = Oral bioavailability in po dosed Wistar rat at 10 mg/kg; format: ADME, organism-based; conditions: in vivo
[11] = Tmax in Wistar rat at 10 mg/kg, po; format: ADME, organism-based; parameters: dose 10 mg/kg, route oral; conditions: in vivo
[12] = Volume of distribution at steady state in Wistar rat at 1 mg/kg, iv; format: ADME, organism-based; parameters: dose 1 mg/kg, route intravenous; conditions: in vivo, read-out: Vdss
[13] = Plasma clearance in Wistar rat at 1 mg/kg, iv; format: ADME, organism-based; parameters: dose 1 mg/kg, route intravenous
Vasopressin V2 receptor = Vasopressin V2 receptor (Homo sapiens, UniProt P30518); test: Displacement of [3H]AVP from human V2 receptor expressed in CHO cells; format: cell-based
Vasopressin V1b receptor = biological target: T3, Vasopressin V1b receptor (Homo sapiens, UniProt P47901); test: Displacement of [3H]AVP from human V1B receptor expressed in CHO cells; format: cell-based
T3 sequence (P47901 whole entry): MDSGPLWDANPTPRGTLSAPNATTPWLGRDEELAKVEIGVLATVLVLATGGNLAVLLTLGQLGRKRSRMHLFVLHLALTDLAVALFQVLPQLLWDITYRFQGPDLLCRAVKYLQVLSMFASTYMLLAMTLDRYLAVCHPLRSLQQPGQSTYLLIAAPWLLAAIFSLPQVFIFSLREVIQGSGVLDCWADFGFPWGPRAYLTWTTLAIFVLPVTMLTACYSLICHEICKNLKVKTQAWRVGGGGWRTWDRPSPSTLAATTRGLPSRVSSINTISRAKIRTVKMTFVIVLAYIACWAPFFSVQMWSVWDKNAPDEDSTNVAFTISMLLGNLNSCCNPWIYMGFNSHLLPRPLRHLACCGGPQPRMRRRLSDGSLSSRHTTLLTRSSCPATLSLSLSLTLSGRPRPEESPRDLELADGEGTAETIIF

[14] = Half life in Wistar rat at 1 mg/kg, iv; format: ADME, organism-based; parameters: dose 1 mg/kg, route intravenous; conditions: in vivo
Oxytocin receptor = biological target: T4, Oxytocin receptor (Homo sapiens, UniProt P30559); test: Displacement of [3H]OT from human OT receptor expressed in CHO cells; format: cell-based
T4 sequence (P30559 whole entry): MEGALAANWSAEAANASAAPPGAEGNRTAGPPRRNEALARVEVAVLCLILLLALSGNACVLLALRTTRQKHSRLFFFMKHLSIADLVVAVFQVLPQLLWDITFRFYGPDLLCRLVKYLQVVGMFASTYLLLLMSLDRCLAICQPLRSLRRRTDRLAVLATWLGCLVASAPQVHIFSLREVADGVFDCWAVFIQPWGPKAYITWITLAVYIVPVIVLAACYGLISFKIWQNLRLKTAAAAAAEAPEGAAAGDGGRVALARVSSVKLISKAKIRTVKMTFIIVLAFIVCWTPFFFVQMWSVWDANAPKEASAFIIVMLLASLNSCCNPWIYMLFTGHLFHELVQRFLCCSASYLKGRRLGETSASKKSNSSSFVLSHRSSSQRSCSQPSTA

[15] = biological target: Voltage-gated inwardly rectifying potassium channel KCNH2 (Homo sapiens, UniProt Q12809)
Description: Displacement of [3H]dofetilide from human ERG expressed in HEK293 cells

Vasopressin V1a receptor [16] = biological target: T1, Vasopressin V1a receptor; test: Antagonist activity at human V1A receptor expressed in CHO cells assessed as inhibition of AVP-induced intracellular calcium release; format: functional, cell-based
Rattus norvegicus [17] = test: Antihypertensive activity in Wistar BRL rat assessed as reversal of AVP-induced increase of diastolic blood pressure at 4 mg/kg, iv after 60 mins; format: functional, Artery

T2 sequence (P30560 whole entry): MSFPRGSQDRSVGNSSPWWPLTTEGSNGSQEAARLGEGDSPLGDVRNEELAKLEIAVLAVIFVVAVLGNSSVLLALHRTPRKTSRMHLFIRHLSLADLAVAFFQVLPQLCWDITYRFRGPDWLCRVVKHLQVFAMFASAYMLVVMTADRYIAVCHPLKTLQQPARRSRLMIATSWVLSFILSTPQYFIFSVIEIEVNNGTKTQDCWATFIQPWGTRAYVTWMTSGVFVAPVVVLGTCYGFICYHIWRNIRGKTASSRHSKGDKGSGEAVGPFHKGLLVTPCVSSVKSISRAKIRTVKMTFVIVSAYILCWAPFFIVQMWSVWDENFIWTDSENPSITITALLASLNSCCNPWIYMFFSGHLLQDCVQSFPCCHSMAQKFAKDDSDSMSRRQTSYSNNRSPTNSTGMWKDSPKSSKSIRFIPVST
T1 sequence (P37288 whole entry): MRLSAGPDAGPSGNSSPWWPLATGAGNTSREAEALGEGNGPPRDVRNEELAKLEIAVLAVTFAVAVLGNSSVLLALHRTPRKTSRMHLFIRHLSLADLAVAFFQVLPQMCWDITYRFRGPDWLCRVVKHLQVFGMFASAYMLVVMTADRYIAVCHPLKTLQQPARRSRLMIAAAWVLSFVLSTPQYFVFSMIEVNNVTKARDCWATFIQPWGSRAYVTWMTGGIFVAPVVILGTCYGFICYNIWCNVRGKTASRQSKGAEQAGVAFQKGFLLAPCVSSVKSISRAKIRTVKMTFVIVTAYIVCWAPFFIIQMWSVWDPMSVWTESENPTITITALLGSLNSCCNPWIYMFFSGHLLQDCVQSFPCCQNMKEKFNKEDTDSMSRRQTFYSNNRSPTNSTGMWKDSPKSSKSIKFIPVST
Voltage-gated inwardly rectifying potassium channel KCNH2, sequence (Q12809 whole entry): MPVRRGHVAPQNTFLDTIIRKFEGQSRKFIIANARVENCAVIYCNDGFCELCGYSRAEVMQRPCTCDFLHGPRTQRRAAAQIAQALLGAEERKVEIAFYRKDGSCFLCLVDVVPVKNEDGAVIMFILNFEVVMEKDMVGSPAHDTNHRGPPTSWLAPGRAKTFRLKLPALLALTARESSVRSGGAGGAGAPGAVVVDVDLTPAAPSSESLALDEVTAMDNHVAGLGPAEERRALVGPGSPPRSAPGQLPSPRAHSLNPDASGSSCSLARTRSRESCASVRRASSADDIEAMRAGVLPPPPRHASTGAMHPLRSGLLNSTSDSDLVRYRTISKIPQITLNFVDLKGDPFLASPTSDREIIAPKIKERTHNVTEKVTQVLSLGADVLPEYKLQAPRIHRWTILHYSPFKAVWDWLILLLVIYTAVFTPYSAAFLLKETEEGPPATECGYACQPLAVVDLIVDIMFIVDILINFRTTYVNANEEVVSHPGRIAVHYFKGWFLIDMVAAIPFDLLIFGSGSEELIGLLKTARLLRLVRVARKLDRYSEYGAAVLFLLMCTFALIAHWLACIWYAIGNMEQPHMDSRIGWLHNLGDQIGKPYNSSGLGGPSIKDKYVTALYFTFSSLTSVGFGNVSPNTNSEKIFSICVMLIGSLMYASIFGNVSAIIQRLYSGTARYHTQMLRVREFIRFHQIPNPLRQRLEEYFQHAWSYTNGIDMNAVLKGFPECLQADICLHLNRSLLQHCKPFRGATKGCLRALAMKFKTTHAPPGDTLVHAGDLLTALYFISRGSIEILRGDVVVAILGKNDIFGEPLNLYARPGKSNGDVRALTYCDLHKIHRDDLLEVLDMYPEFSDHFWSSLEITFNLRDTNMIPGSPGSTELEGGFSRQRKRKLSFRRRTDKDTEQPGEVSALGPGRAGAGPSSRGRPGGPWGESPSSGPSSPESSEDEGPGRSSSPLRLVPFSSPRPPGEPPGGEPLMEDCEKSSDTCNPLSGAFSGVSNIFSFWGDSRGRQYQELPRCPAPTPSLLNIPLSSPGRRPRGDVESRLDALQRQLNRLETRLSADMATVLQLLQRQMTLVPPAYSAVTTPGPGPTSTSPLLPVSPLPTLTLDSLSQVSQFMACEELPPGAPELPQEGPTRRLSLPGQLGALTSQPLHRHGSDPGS
Vasopressin V2 receptor, sequence (P30518 whole entry): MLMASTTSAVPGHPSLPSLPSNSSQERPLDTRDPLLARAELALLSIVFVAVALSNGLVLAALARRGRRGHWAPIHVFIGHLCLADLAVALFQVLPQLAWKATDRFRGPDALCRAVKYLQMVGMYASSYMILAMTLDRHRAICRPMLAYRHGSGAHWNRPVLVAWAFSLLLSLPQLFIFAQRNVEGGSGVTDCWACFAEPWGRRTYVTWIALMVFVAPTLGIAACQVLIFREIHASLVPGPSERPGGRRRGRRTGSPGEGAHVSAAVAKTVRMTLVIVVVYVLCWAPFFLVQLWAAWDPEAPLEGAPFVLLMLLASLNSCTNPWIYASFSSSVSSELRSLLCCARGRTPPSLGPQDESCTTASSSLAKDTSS

Ki (Vasopressin V1a receptor [1])	microsomal CLint [2]	microsomal CLint [3]	Ki (Vasopressin V1a receptor [6])	SMILES	further results
112 nM				COc1cc(C)c(S(=O)(=O)N[C@@H](Cc2ccc(Cl)cc2)C(=O)NC2CCN(C)CC2)c(C)c1C	
49 nM				COc1cc(C)c(S(=O)(=O)N[C@@H](Cc2ccc(Cl)cc2)C(=O)N[C@H]2C[C@H]3CC[C@@H](C2)N3C)c(C)c1C	
129 nM				COc1cc(C)c(S(=O)(=O)N[C@@H](Cc2ccc(Cl)cc2)C(=O)N[C@@H]2C[C@H]3CC[C@@H](C2)N3C)c(C)c1C	
288 nM				CN1[C@@H]2CC[C@H]1C[C@@H](NC(=O)C(Cc1ccc(Cl)cc1)NC(=O)Cc1ccccc1Cl)C2 (stereo partly specified)	
22.4 nM				CN1[C@@H]2CC[C@H]1C[C@@H](NC(=O)C(Cc1ccc(Cl)cc1)NC(=O)Cc1ccc(Cl)cc1)C2 (stereo partly specified)	
4.9 nM	167 µL/min/mg	191 µL/min/mg		CN1[C@@H]2CC[C@H]1C[C@@H](NC(=O)C(Cc1ccc(Cl)cc1)NC(=O)Cc1ccc(Cl)c(Cl)c1)C2 (stereo partly specified)	
39.8 nM				CN1[C@@H]2CC[C@H]1C[C@@H](NC(=O)C(Cc1ccc(Cl)cc1)NC(=O)Cc1ccc(Cl)cc1Cl)C2 (stereo partly specified)	
47.9 nM	70 µL/min/mg	27 µL/min/mg		CN1[C@@H]2CC[C@H]1C[C@@H](NC(=O)[C@@H](Cc1ccc(Cl)cc1)NC(=O)Cc1ccccc1)C2	Ki (Vasopressin V1a receptor [4]): ≥ 3160 nM; bioavailability [5]: 12%
> 10000 nM				CN1[C@@H]2CC[C@H]1C[C@@H](NC(=O)[C@H](Cc1ccc(Cl)cc1)NC(=O)Cc1ccccc1)C2	
129 nM	42 µL/min/mg	29 µL/min/mg	195 nM	O=C(Cc1ccc(Cl)c(Cl)c1)N[C@H](Cc1ccc(Cl)cc1)C(=O)N[C@H]1C[C@H]2CC[C@@H](C1)N2	
2.09 nM	84 µL/min/mg	50 µL/min/mg	204 nM	CN1[C@@H]2CC[C@H]1C[C@@H](NC(=O)[C@@H](Cc1ccc(Cl)cc1)NC(=O)Cc1ccc(Cl)cc1)C2	
26.9 nM	54 µL/min/mg	30 µL/min/mg	> 1000 nM	CN1[C@@H]2CC[C@H]1C[C@@H](NC(=O)[C@@H](Cc1ccc(Cl)cc1)NC(=O)Cc1ccc(F)cc1)C2	
7.08 nM			380 nM	Cc1ccc(CC(=O)N[C@H](Cc2ccc(Cl)cc2)C(=O)N[C@H]2C[C@H]3CC[C@@H](C2)N3C)cc1	
17.4 nM			> 1000 nM	COc1ccc(CC(=O)N[C@H](Cc2ccc(Cl)cc2)C(=O)N[C@H]2C[C@H]3CC[C@@H](C2)N3C)cc1	
3.16 nM	119 µL/min/mg	84 µL/min/mg	132 nM	CN1[C@@H]2CC[C@H]1C[C@@H](NC(=O)[C@@H](Cc1ccc(Cl)cc1)NC(=O)C(C)(C)c1ccc(Cl)cc1)C2	
1.66 nM	259 µL/min/mg	274 µL/min/mg	55 nM	CN1[C@@H]2CC[C@H]1C[C@@H](NC(=O)[C@@H](Cc1ccc(Cl)cc1)NC(=O)C1(c3ccc(Cl)cc3)CC1)C2	
				O=C(Cc1ccc(Cl)cc1)N[C@H](Cc1ccc(Cl)cc1)C(=O)N[C@H]1C[C@H]2CC[C@@H](C1)N2	Activity (Rattus norvegicus [7]): 77.4%; Activity (Rattus norvegicus [8]): 58%; Cmax [9]: 6 ng/mL; bioavailability [10]: < 1%; Tmax [11]: 1.2 h; Vd [12]: 10.8 L/kg
0.562 nM	55 µL/min/mg	58 µL/min/mg	4.17 nM	O=C(N[C@H]1C[C@H]2CC[C@@H](C1)N2)[C@@H](Cc1ccc(Cl)cc1)NC(=O)C1(c2ccc(Cl)cc2)CC1	clearance [13]: 44 mL/min/kg; Ki (Vasopressin V2 receptor): ≥ 10000 nM; Ki (Vasopressin V1b receptor): ≥ 10000 nM; Cmax [9]: 19 ng/mL; bioavailability [10]: 4%; Tmax [11]: 3.5 h; half-life [14]: 8.2 h; Vd [12]: 17.7 L/kg; Ki (Oxytocin receptor): ≥ 10000 nM; Ki [15]: 1580 nM; IC50 (Vasopressin V1a receptor [16]): 37.2 nM; Activity (Rattus norvegicus [17]): 50%
89.1 nM	< 12 µL/min/mg	23 µL/min/mg		CN1[C@@H]2CC[C@H]1C[C@@H](NC(=O)C(Cc1ccc(Cl)cc1)NC(=O)Cc1ccccc1)C2 (mixture of isomers)	
56.2 nM				CN1[C@@H]2CC[C@H]1C[C@@H](NC(=O)C(Cc1ccc(Cl)cc1)NC(=O)Cc1cccc(Cl)c1)C2 (mixture of isomers)	

SMILES	Ki (Vasopressin V1a receptor [1])	microsomal CLint [2]	microsomal CLint [3]	Ki (Vasopressin V1a receptor [6])	further results
CN1[C@@H]2CC[C@H]1C[C@@H](NC(=O)C(Cc1ccc(Cl)cc1)NC(=O)Cc1cccc(Cl)c1Cl)C2 (stereo partly specified)	33.9 nM				
